Source: patent publication US8299081B2, “Methods for treating drug resistant cancer” (Novartis AG, priority 2005, dated 2012)
Values after ≈ are worked out from the molar mass of the structure shown. Read-outs that look alike come from different tables or passages of the source.

Legend:
[1] = system: KM12L4A human colon tumor xenografts; test: KM12L4A human colon tumor xenografts; type: in vivo, nude mice; conditions: large established tumors 500 or 1000 mm^3, dosed daily
Description: These compounds have also shown oral activity in a variety of angiogenesis tumor and metastases animal models.

[2] = parameters: species or system human; conditions: in vivo
Method: (§1) Phase I dose escalating multi-center open label studies were conducted to evaluate the safety, pharmacokinetics, and pharmacodynamics of Compound 1 in subjects with advanced solid malignancies. Further primary objectives of the studies included: 1) determining the Maximum Tolerated Dose (MTD); 2) identifying Dose Limiting Toxicity (DLT); and 3) assessing safety provil in subject with advanced solid tumors. Secondary objectives of the study included: 1) evaluating pharmacokinetics; 2) evaluating pharmacodynamics in plasma, peripheral blood lymphocytes, urine, and tumor cells; 3) recommending dose and schedule for future investigations; and 4) determining evidence of anti-tumor activity (RECIST). Details regarding this study are set forth below
[…]. Plasma exposure in the 100 mg dose group approaches the range where preclinical efficacy has been noted.

[3] = human, in vivo
Method: as §1, with “below […]” for “below”

[4] = system: advanced solid malignancies; test: Phase I dose escalating study: anti-tumor activity; type: in vivo, human
Method: as §1, with “below […]” for “below”

pSTAT5 in MV4;11 tumors = test: Target modulation in vivo: pSTAT5 in MV4;11 tumors; conditions: Mus musculus
P-glycoprotein = P-glycoprotein (Homo sapiens, UniProt P08183); test: P-GP substrate status; type: in vitro ADME
Chain of P-glycoprotein (P08183 whole entry): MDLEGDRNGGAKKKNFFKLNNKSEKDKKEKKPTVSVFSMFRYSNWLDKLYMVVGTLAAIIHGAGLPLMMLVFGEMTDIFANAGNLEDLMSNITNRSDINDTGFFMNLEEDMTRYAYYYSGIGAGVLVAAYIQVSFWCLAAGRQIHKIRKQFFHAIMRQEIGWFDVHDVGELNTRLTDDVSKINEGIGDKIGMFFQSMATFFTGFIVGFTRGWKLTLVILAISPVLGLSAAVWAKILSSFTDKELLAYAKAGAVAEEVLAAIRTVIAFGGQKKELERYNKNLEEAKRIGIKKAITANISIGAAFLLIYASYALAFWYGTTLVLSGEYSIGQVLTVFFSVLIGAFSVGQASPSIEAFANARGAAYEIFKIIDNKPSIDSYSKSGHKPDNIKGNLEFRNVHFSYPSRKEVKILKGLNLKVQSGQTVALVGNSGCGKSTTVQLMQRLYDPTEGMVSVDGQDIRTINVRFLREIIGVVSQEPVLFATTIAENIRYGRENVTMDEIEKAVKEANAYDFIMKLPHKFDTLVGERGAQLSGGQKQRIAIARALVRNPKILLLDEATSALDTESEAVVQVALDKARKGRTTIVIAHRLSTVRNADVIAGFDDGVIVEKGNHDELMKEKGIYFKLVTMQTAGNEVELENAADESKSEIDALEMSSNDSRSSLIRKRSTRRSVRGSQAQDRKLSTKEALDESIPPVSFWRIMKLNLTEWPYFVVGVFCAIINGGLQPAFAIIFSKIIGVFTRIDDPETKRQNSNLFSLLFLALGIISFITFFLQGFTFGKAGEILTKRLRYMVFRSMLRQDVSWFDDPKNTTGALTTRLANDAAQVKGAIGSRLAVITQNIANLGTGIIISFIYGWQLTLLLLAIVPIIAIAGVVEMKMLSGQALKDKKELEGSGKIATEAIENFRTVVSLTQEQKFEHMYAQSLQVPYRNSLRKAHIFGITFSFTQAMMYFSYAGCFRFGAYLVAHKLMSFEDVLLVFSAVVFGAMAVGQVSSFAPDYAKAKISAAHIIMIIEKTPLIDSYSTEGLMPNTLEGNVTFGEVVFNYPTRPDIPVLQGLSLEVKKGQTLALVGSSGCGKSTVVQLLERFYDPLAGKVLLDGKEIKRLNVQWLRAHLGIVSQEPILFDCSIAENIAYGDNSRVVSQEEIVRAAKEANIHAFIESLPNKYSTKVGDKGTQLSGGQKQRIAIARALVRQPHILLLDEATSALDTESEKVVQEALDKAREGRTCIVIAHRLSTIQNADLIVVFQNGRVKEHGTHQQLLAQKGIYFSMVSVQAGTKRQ

RS4;11 tumors = test: Subcutaneous RS4;11 tumor xenograft model; type: in vivo, SCID-NOD mice
MV4;11 cells = test: Intravenous bone marrow (BM) engraftment model MV4;11; type: in vivo, SCID-NOD mice
Method: For processing of bone marrow (BM) cells from the mouse MV4;11 engraftment model, femurs were purged with cold saline and red blood cells lysed with FACS lysis buffer (Becton Dickinson). Percent engraftment of human leukemic cells in mouse BM was determined by staining with anti-human HLA-A,B,C-FITC (vs. isotype-matched antibody-FITC control) (BD Pharmingen).
[…]. […] Mice were monitored daily and were euthanized when moribund or early signs of loss of hind limb motility. Increased life span (ILS) of treated mice was calculated as a percent increase in median survival time (MST) vs. vehicle treated control mice.
. In this model, MV4;11 cells disseminate to the bone marrow (BM), pathologically mimicking a disease pattern similar to human leukemia. […]. Histological analyses and flow cytometry were used to quantify the % engraftment of MV4;11 cells in BM (FIG. 21). In flow cytometric analyses, human MV4;11 cells were identified in mouse BM with an anti-human HLA-A,B,C antibody which binds to an epitope on human MHCl. In vehicle-treated mice, approximately 2-19% of total isolated BM cells consisted of engrafted MV4;11 cells (day 51, FIG. 21-a). This was also corroborated by immunohistochemistry with an antibody to human mitochondria which stains MV4;11 cells identifying the human cells in the mouse BM matrix (FIG. 21-b,c). […].

MV4;11 tumors = test: Subcutaneous MV4;11 tumor xenograft model; type: in vivo, SCID-NOD mice
[5] = system: melphalan-resistant L1210 murine leukemia cells; conditions: cited from earlier work
[6] = system: L1210 murine leukemia cells (parental line); conditions: cited from earlier work
[7] = MV4;11, 30 mg/kg/d, dose-response study
[8] = large MV4;11 tumors 300, 500 or 1000 mm^3, 30 mg/kg/d, n=27

CN1CCN(c2ccc3nc(-c4c(N)c5c(F)cccc5[nH]c4=O)[nH]c3c2)CC1 [Compound 1, 4-amino-5-fluoro-3-[6-(4-methyl-piperazin-1-yl)-1H-benzimidazol-2-yl]-1H-quinolin-2-one]
treated animals with regression and/or disease stabilization [1]: 90-100%
plasma exposure (Cmax, AUC) versus dose [2]: increases proportionally with dose
Anorexia, drug-related clinical adverse events ≥G2 [3]: 2
Hypertension (DLT), drug-related clinical adverse events ≥G2 [3]: 2 (1 G3)
patients with stable disease (SD) at their first evaluation ([4]; 7/22 patients): 32%
patients with SD for greater than 4 months ([4]; in vivo): 4 patients
inhibition at 10 mg/kg (pSTAT5 in MV4;11 tumors; MV4-11, read-out: inhibition of STAT5 phosphorylation in tumors, 10 mg/kg/d x 5 days, 8 hour post dose (maximum)): 90%
inhibition at 10 mg/kg (pSTAT5 in MV4;11 tumors; MV4-11, read-out: inhibition of STAT5 phosphorylation in tumors, 10 mg/kg/d x 5 days, 24 hours): 85%
inhibition at 10 mg/kg (pSTAT5 in MV4;11 tumors; MV4-11, read-out: inhibition of p-STAT5 in tumors, 10 mg/kg/d x 5 days, 48 hours post dose): 60%
P-GP substrate (P-glycoprotein): not a P-GP substrate
TGI (RS4;11 tumors; 100 mg/kg/d, day 8): 48%
minimum effective dose (RS4;11 tumors; day 8, p<0.01): 100 mg/kg/day
MST (MV4;11 cells; 20 mg/kg cyclic, 7 days on/7 days off, 5 cycles): 118 days
MV4;11 cells in BM (leukemic burden) (MV4;11 cells; 20 mg/kg daily over 25 days, flow cytometry): < 1%
increased life span (ILS) (MV4;11 cells; 20 mg/kg daily, vs vehicle): 163%
tumor growth inhibition (TGI) (MV4;11 tumors; MV4;11, 1 mg/kg/d oral, after 2 weeks of dosing): 23%
number of CR (MV4;11 tumors; MV4;11, 30 mg/kg daily, schedule study): 1
TGI (MV4;11 tumors; MV4;11, 30 mg/kg, intermittent dosage regimens): > 94%
complete responders (CR) (MV4;11 tumors; [7]): 1
tumor responses (regression) (MV4;11 tumors; [7]): 9110
PRs durable for 40 days after cessation of dosing (MV4;11 tumors; MV4;11, after 50 days of 30 mg/kg/d): approximately 50%
doses giving significant tumor growth inhibition (MV4;11 tumors; MV4;11 tumors): > 5 mg/kg/day
minimum statistically effective dose (MV4;11 tumors; MV4;11 tumors, p<0.01 vs. Vehicle): 1 mg/kg/day
complete responses (MV4;11 tumors; [8]): 15%
minor responses or remained stable (MV4;11 tumors; [8]): 15%
partial responses (MV4;11 tumors; [8]): 70%
time until tumor regressions were evident (MV4;11 tumors; large MV4;11 tumors, 30 mg/kg/d): 3 to 5 days
number of CR, second cycle (MV4;11 tumors; ten re-grown MV4;11 tumors re-treated with 30 mg/kg/d for 60 days): 2

C=C(Br)C(=O)Nc1cc(C(=O)Nc2cc(C(=O)Nc3cc(C(=O)Nc4cc(C(=O)NCCNC(=N)N)n(C)c4)n(C)c3)n(C)c2)n(C)c1 [Brostallicin]
higher activity in melphalan-resistant L1210 than in the parental line [5]: 3 fold
IC50 ([5]; melphalan-resistant L1210): 0.46 ng/mL (≈ 0.636 nM)
IC50 [6]: 1.45 ng/mL (≈ 2 nM)
